Laboratory results published in patent US20240294521A1, “CRYSTALLINE FORMS, COMPOSITIONS CONTAINING SAME, AND METHODS OF THEIR USE” (Repare Therapeutics Inc., priority 2021, published 2024).
≈ marks a conversion by molar mass, not a printed value. Entries after “also recorded” stand apart in the source; their conditions may differ. Where a name gives a salt, the structure may show the parent alone. Read-outs that look alike come from different tables or passages of the source. Each block holds one compound with its values, some of them ahead of it.

Tests used:
Format in all cases: physicochemical
[1] = Dynamic Vapor Sorption analysis (DVS), hygroscopicity; conditions: for Hygroscopicity by DVS: 25° C./0-90% RH change; for form change by XRPD after DVS: after 0-90% RH; for Hygroscopicity: weight increase at 80% RH, 25° C.; for moisture uptake: 0-90% RH change by DVS
Method: Dynamic Vapor Sorption Analysis (DVS)
• Instrument: DVS Intrinsic, Surface Measurement Systems • Parameters: 25° C., 0-90-0% RH for 2 cycles

[2] = Water solubility of free form solid states at room temperature; conditions: for XRPD Pattern (solubility measured on); form in water: suspended in water, XRPD after 1 day, PLM after 5 days; for form after suspension in water (microscopic images): five days, room temperature
Method: Example 4. Water Solubility of Free Form Solid States at Room Temperature
The samples were shaken at 25° C., 200 rpm. XRPD (taken after the crystalline forms were mixed with water, and after 1 day suspended in water) and PLM (after 5 days) were recorded. […] Table 13 summarizes the water solubility of crystalline forms C and F.

[3] = Form stability of crystalline form F in 0.5% methylcellulose (400 cps)/0.02% sodium lauryl sulfate
Method: The samples were evaluated at designated time points and PLM images were recorded up to 7 days.

[4] = Storage stability of the crystalline forms (25° C./60% RH, 40° C./75% RH); conditions: for XRPD of the samples after exposure vs t=0: 25° C./60% RH and 40° C./75% RH, closed and open vial, 1, 2 and 4 weeks; for appearance after exposure / solid-form stability (XRPD): one-week exposure to 75% RH at 40° C.
Method: Example 8. Storage Stability of the Crystalline Forms
The forms were evaluated with a closed vial and an open vial.
Crystalline Hydrogen Sulfate Form B. […] Approximately 30 mg of crystalline hydrogen sulfate form B was weighed into a 4 mL vial and covered with a KIMWIPE. […]
Crystalline Sulfate Form A. […] Approximately 30 mg of crystalline sulfate form A was weighed into a 4 mL vial and covered with a KIMWIPE. […]

[5] = Form stability of crystalline hydrogen sulfate forms A and B in buffered 0.5% methylcellulose/0.02% sodium lauryl sulfate
Method: Example 7. Form Stability of Crystalline Hydrogen Sulfate Forms A and B in Buffered 0.5% Methylcellulose (v/v) (400 cps)/0.02% Sodium Lauryl Sulfate (v/v)
Crystalline hydrogen sulfate form A was used for form stability studies in 0.5% methylcellulose (v/v) (400 cps)/0.02% sodium lauryl sulfate (v/v) with citrate buffer (pH 4.5) with a concentration of 0.1 mg/mL, 0.2 mg/mL, 0.5 mg/mL and 1 mg/mL with and without stirring. HPLC purity was obtained for the solutions at 3 and 7 days.
An additional sample of crystalline hydrogen sulfate form A in the same buffered formulation was prepared with a concentration of 1 mg/ml and stirred at 500 rpm at room temperature. The sample was monitored every hour for form assessment. The solution was nearly clear at the first 3 hours.

[6] = as above; conditions: 10 mg in 10 mL MC/SLS with (pH 4.5) and without sodium citrate buffer, 500 rpm, room temperature, overnight
[7] = Dynamic Vapor Sorption analysis (DVS), hygroscopicity; conditions: 2-95% RH
[8] = 25° C./60% RH, t = 4 weeks, open vial
[9] = 25° C./60% RH, t = 7 d, open vial
[10] = 25° C./60% RH, t = 14 d, open vial
[11] = 40° C./75% RH, t = 4 weeks, closed vial
[12] = 40° C./75% RH, t = 4 weeks, open vial
[13] = 40° C./75% RH, t = 7 d, open vial
[14] = 40° C./75% RH, t = 14 d, open vial

Hygroscopicity by DVS [1]: slightly hygroscopic
form change by XRPD after DVS [1]: did not change
XRPD Pattern (solubility measured on); form in water ([2]; 25° C.): converted to crystalline form C
solubility ([2]; water, 25 °C, water, thermodynamic from solid, water, 25° C., label = starting material, measured on the form named in the XRPD Pattern column, read-out: Solubility): 50 µg/mL (≈ 122 µM)
form after suspension in water (microscopic images) ([2]; water): converted to crystalline form C
SMILES: C[C@@H]1COCCN1c1cc([C@]2(O)C[C@H]3CC[C@@H](C2)O3)c2cnn(-c3cc[nH]n3)c2n1 [Crystalline form B]
Hygroscopicity [1]: Slightly hygroscopic (e.g., ≥0.2% and <2% (Slightly hygroscopic (e.g., ≥0.2% and <2% weight increase at 80% RH, 25° C.))

Hygroscopicity by DVS [1]: slightly hygroscopic
solubility ([2]; water, 25 °C, water, thermodynamic from solid, water, 25° C., read-out: water solubility): ~50 µg/mL (≈ 122 µM)
SMILES: C[C@@H]1COCCN1c1cc([C@]2(O)C[C@H]3CC[C@@H](C2)O3)c2cnn(-c3cc[nH]n3)c2n1 [Crystalline form C]
form change by XRPD after DVS [1]: XRPD pattern changed after DVS compared to the starting material and matched with crystalline form J
Hygroscopicity [1]: Slightly hygroscopic (e.g., ≥0.2% and <2% weight (Slightly hygroscopic (e.g., ≥0.2% and <2% weight increase at 80% RH, 25° C.))

Hygroscopicity by DVS [1]: non hygroscopic
form change by XRPD after DVS [1]: no form change
water solubility ([2]; water, 25° C.): about 0.046 mg/mL
solubility ([2]; water, 25° C., label = starting material, measured on the form named in the XRPD Pattern column): 46 µg/mL (≈ 112 µM)
form after suspension in water (microscopic images) ([2]; water): unchanged
aqueous solubility (qualitative) [3]: very low
form change ([3]; 0.5% methylcellulose (400 cps)/0.02% sodium lauryl sulfate, room temperature, 7 days, PLM and XRPD): No form change
XRPD of the samples after exposure vs t=0 [4]: matched with the starting materials
DSC [4, 8]: No change
HPLC [4, 8]: 99.94%
TG weight loss by 170° C. [4, 8]: 4.2 wt % loss
XRPD [4, 8]: No change
DSC [4, 9]: No change
HPLC [4, 9]: 99.925%
TG weight loss by 170° C. [4, 9]: 4.2 wt % loss
XRPD [4, 9]: No change
DSC [4, 10]: No change
HPLC [4, 10]: 100%
TG weight loss by 170° C. [4, 10]: 4.2 wt % loss
XRPD [4, 10]: No change
DSC [4, 11]: No change
HPLC [4, 11]: 99.94%
TG weight loss by 170° C. [4, 11]: 4.2 wt % loss
XRPD [4, 11]: No change
DSC [4, 12]: No change
HPLC [4, 12]: 99.94%
TG weight loss by 170° C. [4, 12]: 4.2 wt % loss
XRPD [4, 12]: No change
DSC [4, 13]: No change
HPLC [4, 13]: 99.922%
TG weight loss by 170° C. [4, 13]: 4.2 wt % loss
XRPD [4, 13]: No change
DSC [4, 14]: No change
HPLC [4, 14]: 100%
TG weight loss by 170° C. [4, 14]: 4.2 wt % loss
XRPD [4, 14]: No change
HPLC ([4]; t = 0): 99.903%
TG weight loss by 170° C. ([4]; t = 0): 4.7 wt % loss by
SMILES: C[C@@H]1COCCN1c1cc([C@]2(O)C[C@H]3CC[C@@H](C2)O3)c2cnn(-c3cc[nH]n3)c2n1 [Crystalline form F]
Hygroscopicity [1]: Non hygroscopic (e.g., <0.2% weight increase at (Non hygroscopic (e.g., <0.2% weight increase at 80% RH, 25° C.))
XRPD Pattern (solubility measured on); form in water ([2]; 25° C.): remained unchanged; also recorded: Crystalline form F

moisture uptake [1]: 1.42%
Hygroscopicity by DVS [1]: slightly hygroscopic
form change by XRPD after DVS [1]: No form change
HPLC purity of solution ([5]; 0.1 mg/mL, stir, Day 3, MC/SLS with 50 mM citrate buffer (pH 4.5)): 99.82%
HPLC purity of solution ([5]; 0.1 mg/mL, stir, Day 7, MC/SLS with 50 mM citrate buffer (pH 4.5)): 99.93%
HPLC purity of solution ([5]; 0.1 mg/mL, w/o stir, Day 3, MC/SLS with 50 mM citrate buffer (pH 4.5)): 99.82%
HPLC purity of solution ([5]; 0.2 mg/mL, stir, Day 3, MC/SLS with 50 mM citrate buffer (pH 4.5)): 99.89%
HPLC purity of solution ([5]; 0.2 mg/mL, stir, Day 7, MC/SLS with 50 mM citrate buffer (pH 4.5)): 99.86%
HPLC purity of solution ([5]; 0.2 mg/mL, w/o stir, Day 3, MC/SLS with 50 mM citrate buffer (pH 4.5)): 99.89%
HPLC purity of solution ([5]; 0.5 mg/mL, stir, Day 3, MC/SLS with 50 mM citrate buffer (pH 4.5)): 99.91%
HPLC purity of solution ([5]; 0.5 mg/mL, stir, Day 7, MC/SLS with 50 mM citrate buffer (pH 4.5)): 99.87%
HPLC purity of solution ([5]; 0.5 mg/mL, w/o stir, Day 3, MC/SLS with 50 mM citrate buffer (pH 4.5)): 99.91%
HPLC purity of solution ([5]; 1 mg/mL, stir, Day 3, MC/SLS with 50 mM citrate buffer (pH 4.5)): 99.93%
HPLC purity of solution ([5]; 1 mg/mL, stir, Day 7, MC/SLS with 50 mM citrate buffer (pH 4.5)): 99.94%
HPLC purity of solution ([5]; 1 mg/mL, w/o stir, Day 3, MC/SLS with 50 mM citrate buffer (pH 4.5)): 99.89%
purity of the solutions (HPLC) ([5]; 0.1-1 mg/mL, with and without stirring, 3 and 7 days, citrate buffer pH 4.5): 99.8-99.9%
XRPD of the samples after exposure vs t=0 [4]: matched with the starting materials
HPLC ([4]; 25° C./60% RH, t = 4 weeks, closed vial): 99.92%
HPLC [4, 8]: 99.91%
HPLC ([4]; 25° C./60% RH, t = 7 d, closed vial): 99.936%
HPLC [4, 9]: 99.937%
HPLC ([4]; 25° C./60% RH, t = 14 d, closed vial): 100%
HPLC [4, 10]: 99.944%
HPLC [4, 11]: 99.92%
HPLC [4, 12]: 99.91%
HPLC ([4]; 40° C./75% RH, t = 7 d, closed vial): 99.938%
HPLC [4, 13]: 99.938%
HPLC ([4]; 40° C./75% RH, t = 14 d, closed vial): 100%
HPLC [4, 14]: 100%
HPLC ([4]; t = 0, baseline before storage): 99.902%
SMILES: C[C@@H]1COCCN1c1cc([C@]2(O)C[C@H]3CC[C@@H](C2)O3)c2cnn(-c3cc[nH]n3)c2n1 [Crystalline hydrogen sulfate form A]
Hygroscopicity [1]: Slightly hygroscopic (e.g., ≥0.2% and <2% weight (Slightly hygroscopic (e.g., ≥0.2% and <2% weight increase at 80% RH, 25° C.))
form assessment (precipitate, XRPD) ([5]; 1 mg/ml in buffered MC/SLS, stirred at 500 rpm, room temperature, monitored every hour): After 4 hours, crystalline form C was observed; also recorded: Precipitation of the free form, crystalline form C was observed after 3 hours

moisture uptake [1]: 15.75%
Hygroscopicity by DVS [1]: hygroscopic
appearance after exposure [4]: remained a flowable, white powder
solid-form stability (XRPD) [4]: no significant changes
SMILES: C[C@@H]1COCCN1c1cc([C@]2(O)C[C@H]3CC[C@@H](C2)O3)c2cnn(-c3cc[nH]n3)c2n1 [Crystalline hydrogen sulfate form B]
Hygroscopicity [1]: Hygroscopic (e.g., ≥2% and <15% weight increase (Hygroscopic (e.g., ≥2% and <15% weight increase at 80% RH, 25° C.))
resulting solid form (XRPD) [6]: convert to crystalline form C; also recorded: The resulting solids were determined to be the free form, crystalline form C as confirmed by XRPD (FIG. 38)

appearance after exposure [4]: remained a flowable, white powder
Hygroscopicity [7]: Hygroscopic
weight increase [7]: 2.8%
SMILES: C[C@@H]1COCCN1c1cc([C@]2(O)C[C@H]3CC[C@@H](C2)O3)c2cnn(-c3cc[nH]n3)c2n1 [Crystalline sulfate form A]
solid-form stability (XRPD) [4]: changed to a mixture of crystalline sulfate form A+another crystalline form of a sulfate salt
